The values below come from article PMC8041284, “Tunable Methacrylamides for Covalent Ligand Directed Release Chemistry” (Journal of the American Chemical Society, 2021).

The test deals with BTK (Homo sapiens, UniProt Q06187). The experiment in a line: biochemical.
Setting [1] is: read-out: BTK inhibition (%), 0.75 uM BTK, […] probe 3l, 15 min preincubation.

The structures appear in SMILES notation. Read-outs that look alike come from different tables or passages of the source. Where a SMILES comes first, the peptide text is derived from it. [ ]: non-standard residue; d: D form. The star is where a group is joined. Benzoyl(4-tBu) = CC(C)(C)c1ccc(C(=O)*)cc1; Lys(Et2) = CCN(CC)CCCC[C@H](N)C(=O)O

For orientation: inhibition means the drop in the measured response relative to a control, in per cent.

Sequence of BTK (Q06187 402-655 limits assumed): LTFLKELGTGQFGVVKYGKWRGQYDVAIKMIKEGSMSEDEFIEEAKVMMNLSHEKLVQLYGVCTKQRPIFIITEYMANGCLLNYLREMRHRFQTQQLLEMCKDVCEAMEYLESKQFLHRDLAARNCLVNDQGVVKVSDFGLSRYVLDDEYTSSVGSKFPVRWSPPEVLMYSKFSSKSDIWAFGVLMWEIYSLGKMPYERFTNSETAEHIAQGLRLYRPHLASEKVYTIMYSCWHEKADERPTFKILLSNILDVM

On to `CC(C)(C)NC(=O)c1cncn1C1CCN(c2ccc(-c3nnc(C(F)(F)F)o3)cn2)CC1` [PCM-0215700], for which, under setting [1], the inhibition at 10 µM was -12.4%.
Same read-out and setting: under `O=C(Nc1cnn2ccc(N3CCC[C@@H]3c3cc(F)ccc3F)nc12)N1CC[C@H](O)C1` [PCM-0215701] stands -9%; under `Cn1c(=O)cc(C(=O)Nc2ccc3c(c2)OCCO3)c2ccccc21` [PCM-0215702], -3.9%.
With `Cc1cc2c3c([n+](C)c4ccc(F)cc4c3c1)-c1cc(F)ccc1N2C` [PCM-0215703], the inhibition at 10 µM under setting [1] is 13.1%.
Still for that read-out and setting: under `COc1cc2ncnc(Nc3ccc(Oc4ccccc4)cc3C)c2cc1OC` [PCM-0215704] stands 110%.
As for `O=[N+]([O-])c1ccc(Sc2cccc[n+]2[O-])c2nonc12` [PCM-0215705], the inhibition at 10 µM under setting [1] worked out at 73.4%.
In the case of `OCCOCCN1CCN(Cc2cccc(Oc3ccccc3)c2)CC1` [PCM-0215707], the inhibition at 10 µM under setting [1] was 13.1%.
Still for that read-out and setting: in the case of `CCn1c(C(=O)N(C2CC2)C2CC2)cc2c3c(ncn3C)c(Nc3cc(C)n(C)n3)nc21` [PCM-0215708] it was 3.4%.
The same measure, in the same setting: under `Cc1cn(CCN2CCN(c3ccccc3-c3cc(C#N)cc(C(=O)NCCCN4CCCC4)c3)CC2)c2ccccc12` [PCM-0215709] stands 27%; under `CNCC(=O)O` [PCM-0215710], -11.1%.
Still for that read-out and setting: under `O=C(O)C(O)C(O)C(=O)O` (stereo not drawn) [PCM-0215711] stands -0.9%; under `CC(C)OC(=O)CCC/C=C\C[C@@H]1[C@@H](CC[C@@H](O)CCc2ccccc2)[C@H](O)C[C@@H]1O` [PCM-0215712], -13.1%.
Consider `CN[C@H]1CN(c2ccc3c(=O)c(C(=O)O)cn(-c4nccs4)c3n2)C[C@@H]1OC` [PCM-0215713], for which the inhibition at 10 µM under setting [1] was -17%.
Take `Nc1nccc(Oc2ccc3c(C(=O)Nc4cccc(C(F)(F)F)c4)cccc3c2)n1` [PCM-0215714]: under setting [1], the inhibition at 10 µM is -2.8%.
The same measure, in the same setting: in the case of `O=C(O)c1ccc(-c2ccc(/C=C3\SC(=S)N(Cc4ccccc4)C3=O)o2)cc1` [PCM-0215715] it was 11.6%; in that of `C[C@@H]1CC(=O)Nc2cccc(-c3ccc4c(c3)c(-c3cnn(C)c3)nn4C)c2N1` [PCM-0215716], 1.5%; in that of `COC(=O)[C@H](CC(C)C)NC(=O)c1ccc(NC[C@@H](N)CS)cc1-c1cccc2ccccc12` [PCM-0215717], -79.5%.
The same measure, in the same setting: under `Cn1c(=O)c(Oc2ccc(F)cc2F)cc2cnc(NC(CCO)CCO)nc21` [PCM-0215718] stands -30.3%; under `O=C(NCCCn1ccnc1)c1cc(-c2ccco2)on1` [PCM-0215720], -9.3%.
For the compound `Cl[Te]1(Cl)(Cl)OCCO1` [PCM-0215721], the inhibition at 10 µM (read-out: BTK inhibition (%)) stood at 98.6%.
As to `CCN(CC)C[C@@H](O)CNc1ccc(NC[C@H]2CO2)c2c1C(=O)c1ccccc1C2=O` [PCM-0215722], the inhibition at 10 µM under setting [1] stood at 57.9%.
Same read-out and setting: under `COc1cc2c(cc1OC(C)C)[C@H](c1ccc(Cl)cc1)N(c1ccc(N(C)CC3CCC(N4CCN(C)C(=O)C4)CC3)cc1)C(=O)C2` (stereo partly drawn) [PCM-0215723] stands 57.9%; under `O=C(Nc1cccc(C(F)(F)F)c1)c1cccc2cc(Oc3cc(CO)ncn3)ccc12` [PCM-0215724], -0.7%.
The same measure, in the same setting: under `COc1cc(C(=O)N(CCCc2ccccc2)Cc2ccc(CC(=O)O)cc2)cc(OC)c1C` [PCM-0215725] stands 16.2%; under `CN(C)C(=O)CCSC(SCCC(=O)O)c1cccc(/C=C/c2ccc3ccc(Cl)cc3n2)c1` (stereo not drawn) [PCM-0215726], 10.8%; under `C[C@@H]1Cc2c([nH]c3ccccc23)[C@@H](c2c(F)cc(/C=C/C(=O)O)cc2F)N1CC(C)(C)F` [PCM-0215727], 30.9%.
On the same count and under the same terms, under `Oc1cc(CNC(=S)/C=C/c2cc(O)c(O)c(Br)c2)cc(O)c1O` [PCM-0215728] stands 43.4%.
`Cc1ccc(Nc2cc(N[C@@H]3CCCC[C@@H]3N)nnc2C(N)=O)nc1C` [PCM-0215730]: the inhibition at 10 µM under setting [1] stood at 79.3%.
Still for that read-out and setting: in the case of `Cc1nnsc1C(=O)Nc1ccc(-n2nc(C(F)(F)F)cc2C(F)(F)F)cc1` [PCM-0215731] it was 22.4%; in that of `N#C/C(=C(\O)c1ccc(Cl)cc1Cl)c1nc2ccccc2c(=O)[nH]1` [PCM-0215733], -6.9%; in that of `Cc1cc(Nc2ncnc3ccc(NC4=NC(C)(C)CO4)cc23)ccc1Oc1ccn2ncnc2c1` [PCM-0215734], 71.7%.
On the same count and under the same terms, in the case of `CC(C)c1c(-c2ccccc2)nc2c(C#N)c[nH]n2c1=O` [PCM-0215735] it was 24.7%.
Still for that read-out and setting: under `Cc1ccc(C(=O)Nc2ccc(Oc3cc4cnn(C)c4cc3-c3cn[nH]c3)c(F)c2)c(=O)n1-c1ccc(F)cc1` [PCM-0215736] stands 105%; under `CC1(C)OCCn2c1nc1c(N3CCOCC3)nc(-c3cnc(N)nc3)nc12` [PCM-0215737], 37.9%.
As for `Cc1ccc(NS(=O)(=O)c2ccc3c(c2)C2C=CCC2C(c2ccc(C(=O)O)cc2)N3)cc1C` (stereo not drawn) [PCM-0215738], under setting [1], the inhibition at 10 µM came out at 92.7%.
On the same count and under the same terms, under `CCCNC(=O)[C@H]1O[C@@H]1C(=O)N[C@H](C(=O)N1CCC[C@H]1C(=O)OC)[C@@H](C)CC` [PCM-0215739] stands -31.7%; under `CS(=O)(=O)Nc1ccc([N+](=O)[O-])cc1OC1CCCCC1` [PCM-0215740], 3.4%.
Same read-out and setting: in the case of `CCN(CC)CCCC[C@H](NC(=O)[C@H](CC(C)C)NC(=O)[C@H](C)NC(=O)[C@H](Cc1ccccc1)NC(=O)c1ccc(C(C)(C)C)cc1)C(=O)N[C@@H](CO)C(=O)OC` [PCM-0215741] ({Benzoyl(4-tBu)}-FAL[Lys(Et2)]S-OMe) it was -16.2%; in that of `O=C(O)[C@@]1(CCCCCCOc2ccc(Cl)cc2)CO1` [PCM-0215742], -1.5%; in that of `CCN1C(=O)CNc2ncc(-c3ccc(-c4ncn[nH]4)nc3C)nc21` [PCM-0215743], 11.7%.
Same read-out and setting: in the case of `CCNC(=O)Nc1ccc(-c2nc(N3CCOC[C@@H]3C)c3c(n2)C(C)(C)S(=O)(=O)C3)cc1` [PCM-0215744] it was -22.8%; in that of `CN1c2ccccc2C(=O)Nc2cnc(Nc3ccc(N4CCC(O)CC4)cc3)nc21` [PCM-0215745], 93.8%; in that of `Fc1ccc2c(/C=C/c3nn[nH]n3)c[nH]c2c1` [PCM-0215746], 4.6%.
Turning to `COc1ccc(-c2nc(-c3cc(C(F)(F)F)cc(C(F)(F)F)c3)n(Cc3ccc(C(N)=O)cc3)c2-c2ccc(OC)cc2)cc1` [PCM-0215748], under setting [1], the inhibition at 10 µM came to 57.1%.
On the same count and under the same terms, in the case of `C[C@@H](N)c1ccc(C(=O)Nc2ccnc3[nH]ccc23)cc1` [PCM-0215750] it was -30.3%.
On the same count and under the same terms, in the case of `COCC1(CO)C(=O)C2CCN1CC2` (stereo not drawn) [PCM-0215751] it was 0%; in that of `Cn1cc(C(=O)Nc2ccc3c(c2)OCCO3)c2ccccc2c1=O` [PCM-0215752], 6.9%.
Still for that read-out and setting: in the case of `COc1ccc(CC(=O)Nc2nc3c(s2)CCc2ccccc2-3)cc1OC` [PCM-0215753] it was 55.9%.
For `O=C(O)c1ccc2c3c1cccc3c(=O)n1c3ccccc3nc21` [PCM-0215754], under setting [1], the inhibition at 10 µM came out at 13.8%.
In the case of `CC#Cc1cncc(-c2ccc3c(c2)[C@@]2(N=C(C)C(N)=N2)C2(CCC(OC)CC2)C3)c1` (stereo partly drawn) [PCM-0215755], the inhibition at 10 µM under setting [1] came out at 0%.
The same measure, in the same setting: under `C[C@]12CC[C@H]3[C@@H](CC=C4CC(O)CC[C@@]43C)[C@@H]1CC[C@@H]2C(O)CC(O)(C(F)(F)F)C(F)(F)F` (stereo partly drawn) [PCM-0215756] stands 11.6%.
